Experimental data as given in the METLIN SMRT retention time set (Domingo-Almenara et al. 2019).

Test: gradient 5% acetonitrile 3 min, to 50% in 2 min, to 85% in 15 min, held 3 min, 100 µL/min
Settings: column: Zorbax Extend-C18 2.1 x 50 mm; eluents: water / acetonitrile, 0.1% formic acid
How it was run: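 Retention times of pure standards were taken from adduct peaks that were selected by computer and manually inspected. Over 3 months, mixtures of ~100 molecules were run by HPLC–quadrupole time-of-flight mass spectrometry in positive and negative ionization mode. The Zorbax Extend-C18 column (2.1 × 50 mm, 1.8 μm) ran at 100 μL/min in water and acetonitrile, each containing 0.1% formic acid, with 40 μL dead volume and 900 μL dwell volume.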

SMILES	RP-LC retention time [s]
COc1ccc(N2CC(c3nc(-c4ccncc4)no3)CC2=O)cc1Cl (stereo not given)	752
Cc1ccc(N2CCN(C(=O)C3CCCN(c4ncnc5c4nc4n5CCCCC4)C3)CC2)c(C)c1 (stereo not given)	1050
CC(C)N1CCN(C(=O)c2n[nH]c3c2CCCC3)CC1	558
CCC1CCCCN1C(=O)c1cnc2nc(C)ccc2c1Nc1ccc(OC)cc1OC (stereo not given)	667
CC(Oc1ccccc1Cl)C(=O)NCCn1nc(-n2cccn2)ccc1=O (stereo not given)	710
CCCCN1CCN(C(=O)CCc2cc3ccc(C)cc3[nH]c2=O)CC1	628
Cc1nc2cc(-c3noc(C4CC(=O)N(c5cccc(Cl)c5)C4)n3)ccc2o1 (stereo not given)	958
COc1cccc(/C=C2\CCc3ccccc3C2=O)c1	1200
CC1=C(c2ccccc2)S(=O)(=O)N=C1N1CCC(NC(=O)c2ccoc2)CC1	733
CCCS(=O)(=O)c1ccc(NCc2ccc(OC)c(OC)c2)nn1	706
Cc1ccc(Nc2c(-c3ccc([N+](=O)[O-])cc3)nc3cc(C)ccn23)cc1	790
CCCN1C(=O)c2cccnc2Sc2cc(C(=O)N3CCN(CC)CC3)ccc21	594
O=C(Nc1ccc(-n2cnc(C(=O)N3CCCCCC3)c2)nc1)C1CC1	698
Cc1ccc(NC(=O)c2cn(-c3cc(N4CCCC4)ncn3)cn2)c(C)c1	961
CC1(C(=O)NCc2ccccc2)CCN(C(=O)Nc2cccc(C(F)(F)F)c2)CC1	919
Cc1ccc(C2c3[nH]c4ccccc4c3CCN2C(=O)c2ccnn2C)cc1 (stereo not given)	673
CCc1noc(C2(NC(=O)c3ccc(C#N)cc3)CCCCC2)n1	896
O=C(CSc1ccc(Cl)cc1)Nc1nnc(-c2cccc([N+](=O)[O-])c2)s1	968
CCn1cnc(S(=O)(=O)N2CCCC(C(=O)NCc3ccc(C)cc3)C2)c1 (stereo not given)	803
Cc1cc(=O)n(CC(=O)N2CCc3ccccc32)c(N2CCCC2)n1	664
Cc1ccc(S(=O)(=O)Nc2ccc(-c3cn4ccccc4n3)cc2)cc1	628
CCOC(=O)c1nc(NC2CCCCCC2)c2ccccc2n1	827
O=C(NC1CC1)c1c2c(nc3ccc(F)cc13)CCC2	650

SMILES	RP-LC retention time [s]
O=C(NCC1(CO)CC1)C(=O)Nc1cccc(N2CCCCC2=O)c1	610
O=C(NCc1cc(F)cc(F)c1)C1CCN(C(=O)c2ncn3c2COC(c2ccc(F)cc2)C3)CC1 (stereo not given)	802
CCC(C)NC(=O)CN1CCN(C(=O)Nc2ccc(Cl)cc2)CC1=O (stereo not given)	686
Cc1nc(-c2nc(-c3cccs3)cs2)cn1CC(=O)NCc1ccccc1	760
CCCNC(=O)c1ccc2cnn(C)c2c1	673
c1ccc2nc(OCCN3CC3)ccc2c1	727
Cc1ccc(NC(=O)N2CCC(n3cnc4cc(F)ccc4c3=O)CC2)c(C)c1	811
COc1ccccc1N1CCN(c2ncccc2-c2nc(-c3ccccc3)no2)CC1	1140
CCSc1nnc(NC(=O)Cn2cnc(C(C)C)cc2=O)s1	664
COc1ccc(NC(=O)N2CCC(N3C[C@H]4C[C@H](C3)[C@H]3CCCC(=O)N3C4)CC2)cc1OC	611
Cc1ccccc1Nc1c(-c2c(F)cccc2Cl)nc2ccccn12	739
Cc1nccn1-c1ccc(N2CCN(C(=O)c3cc4ccccc4o3)CC2)nn1	560
Cc1cc(C)cc(-n2ccn(Cc3nc(-c4ccc(Cl)c(F)c4)no3)c(=O)c2=O)c1	976
CCCN(CCC)c1nc2cc(C(=O)OC)ccc2c(=O)n1-c1ccccc1	1320
CCC1CCCCN1C(=O)c1cnc2nc(C)ccc2c1Nc1cc(OC)ccc1OC (stereo not given)	689
O=C(CSc1nnc(-c2ccccc2)c(-c2ccccc2)n1)Nc1nccs1	840
COc1ccc(-c2nnc(N3CCC(C(=O)Nc4ccc(OC)c(OC)c4)CC3)o2)cc1	748
COc1cc(OC)cc(N2C(=O)C3N=NN(Cc4nc(-c5ccc(Cl)cc5)no4)C3C2=O)c1 (stereo not given)	1020
CCCn1c(=O)c2cc(C(=O)N3CCN(c4ccccc4)CC3)nn2c2ccccc21	1030
Cc1oc(C2CCN(S(=O)(=O)CCc3ccccc3)CC2)nc1C(=O)N1CCCC1	917
CCN1CCCn2cc(S(=O)(=O)NCCCc3ccccc3)cc2C1=O	785
Cc1c(-c2ccnc(N3CCCCC3)n2)cnc2nc(-c3ccc(Cl)cc3)nn12	1400
Cc1cc(NC(=O)C2Oc3ccccc3NC2=O)ccc1Br (stereo not given)	865

SMILES	RP-LC retention time [s]
Cc1cc(=O)n(CC(=O)Nc2ccc3c(c2)OCO3)c(N2CCOCC2)n1	644
CCOC(=O)C(Cc1ccc(O)cc1)Nc1nc2ccccc2o1 (stereo not given)	846
O=C(C1CCCN(S(=O)(=O)N2CCCCC2)C1)N1CCN(Cc2ccc3c(c2)OCO3)CC1 (stereo not given)	679
COC(=O)c1cn(CC(=O)NCc2cc3c(cc2OC)OCCCO3)c2ccccc12	897
CN1CCN(C(=O)C2CCN(S(=O)(=O)c3cc4c(cc3Cl)NC(=O)CO4)CC2)CC1	580
Cc1nc(OCC(=O)NC2CCCCC2)c2c(-c3ccccc3)noc2n1	1010
CC(C)NC(=O)c1ccc2c(c1)nc(CN(C)C(=O)NCc1ccco1)n2C	602
Cc1csc(-c2cc(S(=O)(=O)N3CCCCC3)cn2CC(=O)N2CCCCC2)n1	1020
CCS(=O)(=O)c1nc2ccc(NS(=O)(=O)c3ccc4c(c3)OCCO4)cc2s1	826
O=C(CSc1nccn1-c1cccc(Cl)c1)Nc1ccccc1F	841
COc1ccc(CNC(=O)Cn2c(C)nc3onc(C)c3c2=O)cc1	711
CC1=C(c2ccccc2)S(=O)(=O)N=C1N1CCCN(C(=O)c2ccccc2C)CC1	808
CN(C)c1cnc(-n2cc(NC(=O)c3ccc(F)cc3)cn2)nc1	723
O=C(NCCCN1CCCC1)c1ccc(CS(=O)Cc2ccccc2Cl)o1 (stereo not given)	548
COc1nc2c(c(C)nn2-c2ccccc2)c(C)c1CCC(=O)NCCc1c[nH]c2ccccc12	1130
COc1ccc2c(c1)C(O)(CC(=O)c1ccc(-c3ccc(Cl)cc3)o1)C(=O)N2 (stereo not given)	797
CCOc1ccccc1NC(=O)CSc1nnc(-c2cccnc2)o1	730
CSc1ccc(CNC(=O)Cn2c(=O)cc(-c3nc(C4CC4)no3)c3ccccc32)cc1	962
Cc1c(Cl)cccc1NC(=O)N1CCC(c2cc(N)on2)CC1	736
Cc1[nH]c(C(=O)N2CCCC(C(=O)N3CCN(C4CCCCC4)CC3)C2)c(C)c1C(=O)OC(C)C (stereo not given)	645
O=C(Cc1ccccc1Cl)N1CCCC1c1nc(-c2ccccc2)no1 (stereo not given)	1020
Cc1c(-c2ccnc(N3CCN(C)CC3)n2)cnc2nc(-c3ccncc3)nn12	552
Cn1cc(-c2ccncc2)cc1C(=O)NCc1ccc(Cl)cc1	646

SMILES	RP-LC retention time [s]
COCCCNC(=O)C1CCCN(c2nnc3ccccn23)C1 (stereo not given)	529
Cc1ccc(-c2ncccc2CNS(=O)(=O)c2ccc(C)cc2)cc1	684
CCCn1cnc2ccc(-c3noc(-c4ccccc4F)n3)cc21	812
CCC(C)NC(=O)c1n[nH]c2c1CC(C)CC2 (stereo not given)	777
Cc1ccc2nc(-c3ccc(NC(=O)c4cnc5sccn5c4=O)cc3)sc2c1	1110
NC(=O)/C(=C\c1ccncc1)c1cccc2ccccc12	647
Cc1ccc(NC(=O)N2CCC(c3cc(N)on3)CC2)cc1	686
O=C(NCc1ccc(N2CCOCC2)cc1)c1cccc2c1CCN2C(=O)C1CC1	735
COc1ccc(C(=C2C(=O)Nc3ccccc32)c2ccc(OC)cc2)cc1	974
CC1CCCN(c2ccc(-c3noc(CN4CCN(c5ccccc5F)CC4)n3)cn2)C1 (stereo not given)	1090
CCCCN(CC)C(=O)C1CCN(S(=O)(=O)c2ccc3c(c2)NC(=O)CO3)CC1	784
CCOc1ccc(C(=O)N2CCC3(CC2)NC(=O)c2cc(F)ccc2N3C)cc1	767
Cc1cccc(N2C(=O)CN(CCc3cccs3)[C@H]3CS(=O)(=O)C[C@H]32)c1	814
CCCN1CCN(C(=O)CN2C(=O)C3CCCCN3c3ccc(C(=O)N4CCCCC4)cc32)CC1 (stereo not given)	652
Cc1nc(-c2ccc(NC(=O)c3ccc([N+](=O)[O-])cc3)cc2)cs1	855
O=C(O)c1nnn(-c2cccc(Cl)c2)c1-c1cccnc1	680
COc1ccc(NC(=O)C2CCN(c3nnc4ccccn34)CC2)cc1C(F)(F)F	704
COc1cccc2c(Nc3ccccc3)cc(C(=O)N3CCSCC3)nc12	656
CCOCC(=O)N1CCc2c(c(C(=O)N3CCCC(C(=O)Nc4ccccc4)C3)nn2C)C1 (stereo not given)	668
COCc1nc2ccccc2n1CC(=O)Nc1ccccc1	780
CCN1C(=O)COc2ccc(-c3noc(-c4ccc(C#N)cc4)n3)cc21	1050
